From ChEMBL document CHEMBL1139149, “Discovery of tertiary aminoacids as dual PPARalpha/gamma agonists-I” (Bioorg Med Chem Lett, 2007)
The source made the active and inactive calls. The calls are words filed in the database; no cut-off is given here.

Key:
[1] = biological target: T1, Peroxisome proliferator-activated receptor alpha (Homo sapiens) (UniProt Q07869); experiment: Intrinsic activity at PPARalpha receptor expressed in HEK293 cells at 1 uM by GAL4 transactivation assay relative to GW-2331; type: cell-based
T1 sequence (whole entry): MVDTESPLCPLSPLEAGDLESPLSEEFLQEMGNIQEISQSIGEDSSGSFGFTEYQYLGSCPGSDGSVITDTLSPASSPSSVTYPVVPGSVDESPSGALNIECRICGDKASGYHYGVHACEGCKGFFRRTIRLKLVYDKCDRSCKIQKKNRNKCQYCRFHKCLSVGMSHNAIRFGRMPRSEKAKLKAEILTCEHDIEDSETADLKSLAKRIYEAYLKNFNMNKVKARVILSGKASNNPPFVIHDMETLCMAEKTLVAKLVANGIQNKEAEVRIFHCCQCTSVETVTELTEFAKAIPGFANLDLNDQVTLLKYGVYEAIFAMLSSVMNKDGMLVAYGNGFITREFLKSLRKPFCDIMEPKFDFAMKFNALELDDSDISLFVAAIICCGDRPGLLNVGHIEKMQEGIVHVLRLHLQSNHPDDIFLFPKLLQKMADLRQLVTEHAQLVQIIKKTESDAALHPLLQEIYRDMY

[2] = biological target: T2, Peroxisome proliferator-activated receptor gamma (Homo sapiens, UniProt P37231); experiment: (§1) Displacement of fluorescein labeled ligand from PPARgamma receptor by fluorescence polarization assay
T2 sequence (P37231 whole entry): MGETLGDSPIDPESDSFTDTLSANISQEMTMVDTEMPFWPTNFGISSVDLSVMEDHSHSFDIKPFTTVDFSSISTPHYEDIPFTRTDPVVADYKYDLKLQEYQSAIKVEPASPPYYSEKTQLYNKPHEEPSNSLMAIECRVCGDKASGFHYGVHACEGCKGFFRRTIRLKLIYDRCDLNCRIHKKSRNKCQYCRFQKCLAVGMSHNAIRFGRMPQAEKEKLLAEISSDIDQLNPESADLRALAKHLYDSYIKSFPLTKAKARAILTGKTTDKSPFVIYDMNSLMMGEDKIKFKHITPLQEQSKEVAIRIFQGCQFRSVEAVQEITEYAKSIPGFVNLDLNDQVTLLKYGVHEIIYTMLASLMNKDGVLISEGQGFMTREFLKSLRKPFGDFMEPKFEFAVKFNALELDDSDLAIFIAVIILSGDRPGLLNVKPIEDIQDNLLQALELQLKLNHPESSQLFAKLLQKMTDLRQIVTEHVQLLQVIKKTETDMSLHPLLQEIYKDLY

[3] = biological target: T2, Peroxisome proliferator-activated receptor gamma
Description: Agonist activity at PPARgamma receptor expressed in HEK293 cells by GAL4 transactivation assay

[4] = biological target: T3, Peroxisome proliferator-activated receptor alpha (Homo sapiens, UniProt Q07869); experiment: Agonist activity at PPARalpha receptor expressed in HEK293 cells by GAL4 transactivation assay; type: functional, cell-based
T3 sequence (Q07869 whole entry): T1 sequence (whole entry)

[5] = biological target: T3, Peroxisome proliferator-activated receptor alpha; experiment: Displacement of fluorescein labeled ligand from PPARalpha receptor by fluorescence polarization assay
Mus musculus [6] = experiment: Antidiabetic activity in db/db mouse assessed as changes in free fatty acid level at 10 mg/kg, po qd for 14 days; type: functional
Mus musculus [7] = experiment: Antidiabetic activity in db/db mouse assessed as changes in triglyceride level at 10 mg/kg, po qd for 14 days; type: functional
[8] = Permeability from apical to basolateral side of Caco-2 cell membrane at pH 5.5; type: ADME, cell-based; details: human, Caco-2, pH 5.5; read-out: permeability
Mus musculus [9] = experiment: Antidiabetic activity in db/db mouse assessed as changes in glucose level at 10 mg/kg, po qd for 14 days; type: functional
[10] = Metabolic stability in mouse liver microsomes after 10 mins; type: ADME, Microsome; details: read-out: Stability
Mus musculus [11] = experiment: Antidiabetic activity in db/db mouse assessed as changes in insulin level at 10 mg/kg, po qd for 14 days; type: functional
[12] = Permeability from apical to basolateral side of Caco-2 cell membrane at pH 7.4; type: ADME, cell-based; details: human, Caco-2, pH 7.4; read-out: permeability
[13] = Permeability from apical to basolateral side of Caco-2 cell membrane at pH 6.5; type: ADME, cell-based; details: human, Caco-2, pH 6.5; read-out: permeability
[14] = biological target: T4, Peroxisome proliferator-activated receptor gamma (Homo sapiens) (UniProt P37231); experiment: as §1
T4 sequence (whole entry): T2 sequence (P37231 whole entry)

SMILES: Cc1oc(-c2ccccc2)nc1CCOc1cccc(CN(CCc2ccccc2)CC(=O)O)c1
- Intrinsic activity [1]: 82%
- IC50 [2]: 0.134 µM
- EC50 [3]: 0.108 µM
- EC50 [4]: 0.044 µM
- IC50 [5]: 0.075 µM

SMILES: Cc1oc(-c2ccccc2)nc1CCOc1cccc(CN(CC(=O)O)Cc2ccccc2)c1
- Activity (Mus musculus [6]): -22%
- Activity (Mus musculus [7]): -29%
- Papp A→B [8]: 251 nm/s
- Intrinsic activity [1]: 72%
- Activity (Mus musculus [9]): -31%
- IC50 [2]: 0.24 µM
- remaining at 10 min [10]: 84%
- EC50 [3]: 0.295 µM
- EC50 [4]: 0.022 µM
- IC50 [5]: 0.09 µM
- Activity (Mus musculus [11]): -40%
- Papp A→B [12]: 225 nm/s

SMILES: Cc1oc(-c2ccccc2)nc1CCOc1ccc(CN(CC(=O)O)Cc2ccc3ccccc3c2)cc1
- Intrinsic activity [1]: 39%
- IC50 [2]: 1.21 µM
- EC50 [3]: 1.21 µM
- EC50 [4]: 0.618 µM
- IC50 [5]: 0.68 µM

SMILES: Cc1oc(-c2ccccc2)nc1CCOc1ccc(CN(CC(=O)O)Cc2ccccc2)cc1
- Intrinsic activity [1]: 24%
- IC50 [2]: 1.77 µM
- EC50 [3]: 3.6 µM
- EC50 [4]: 4.02 µM

SMILES: Cc1oc(-c2ccccc2)nc1CCOc1ccc(CN(CC(=O)O)Cc2cccc(Oc3ccccc3)c2)cc1
- Intrinsic activity [1]: 107%
- IC50 [2]: 0.48 µM
- EC50 [3]: 0.391 µM
- EC50 [4]: 0.004 µM
- IC50 [5]: 0.088 µM

SMILES: CCCCCCCN(CC(=O)O)Cc1ccc(OCCc2nc(-c3ccccc3)oc2C)cc1
- Intrinsic activity [1]: 63%
- IC50 [2]: 2.3 µM
- EC50 [3]: 0.136 µM
- EC50 [4]: 0.18 µM
- IC50 [5]: 1.05 µM

SMILES: COc1ccc(OC(=O)N(CC(=O)O)Cc2ccc(OCCc3nc(-c4ccccc4)oc3C)cc2)cc1 [MURAGLITAZAR]
- Activity (Mus musculus [6]): -69%
- Activity (Mus musculus [7]): -50%
- Activity (Mus musculus [9]): -50%
- Activity (Mus musculus [11]): -67%

SMILES: Cc1oc(-c2ccccc2)nc1CCOc1cccc(CN(CC(=O)O)Cc2cccc3ccccc23)c1
- Intrinsic activity [1]: 85%
- IC50 [2]: 0.067 µM
- EC50 [3]: 0.036 µM
- EC50 [4]: 0.005 µM
- IC50 [5]: 0.034 µM

SMILES: Cc1oc(-c2ccccc2)nc1CCOc1ccc(CN(CC(=O)O)Cc2cccc3ccccc23)cc1
- Intrinsic activity [1]: 90%
- IC50 [2]: 0.767 µM
- EC50 [3]: 0.84 µM
- EC50 [4]: 0.021 µM
- IC50 [5]: 0.14 µM

SMILES: Cc1oc(-c2ccccc2)nc1CCOc1ccc(CN(CCOCc2ccccc2)CC(=O)O)cc1
- Intrinsic activity [1]: 56%
- IC50 [2]: 4.56 µM
- EC50 [3]: 1.18 µM
- EC50 [4]: 0.726 µM
- IC50 [5]: 1.8 µM

SMILES: Cc1oc(-c2ccccc2)nc1CCOc1cccc(CN(CC(=O)O)Cc2ccc(Oc3ccccc3)cc2)c1
- Intrinsic activity [1]: 67%
- IC50 [2]: 0.23 µM
- EC50 [3]: 0.067 µM
- EC50 [4]: 0.03 µM
- IC50 [5]: 0.11 µM

SMILES: Cc1oc(-c2ccccc2)nc1CCOc1ccc(CN(CC(=O)O)Cc2ccc(Oc3ccccc3)cc2)cc1
- Papp A→B [13]: < 15 nm/s
- Intrinsic activity [1]: 59%
- IC50 [2]: 0.227 µM
- remaining at 10 min [10]: 46%
- EC50 [3]: 0.052 µM
- EC50 [4]: 0.035 µM
- IC50 [5]: 0.97 µM

SMILES: CCCCCCCN(CCc1ccc(O[C@@](C)(CC)C(=O)O)cc1)C(=O)Nc1ccc(F)cc1F
- Intrinsic activity [1]: 79%
- IC50 [2]: 0.67 µM
- EC50 [3]: 0.249 µM
- EC50 [4]: 0.071 µM
- IC50 [5]: 0.348 µM

SMILES: Cc1oc(-c2ccccc2)nc1CCOc1ccc(C[C@H](Nc2ccccc2C(=O)c2ccccc2)C(=O)O)cc1
- Intrinsic activity [1]: 59%

SMILES: Cc1oc(-c2ccccc2)nc1CCOc1ccc(CN(CC(=O)O)Cc2ccccn2)cc1
- Intrinsic activity [1]: 12%
- IC50 [2]: 2.9 µM
- EC50 [3]: 0.23 µM
- EC50 [4]: 0.692 µM

SMILES: Cc1oc(-c2ccccc2)nc1CCOc1cccc(CN(CC(=O)O)Cc2cc3ccccc3[nH]2)c1
- Intrinsic activity [1]: 62%
- IC50 [2]: 0.54 µM
- EC50 [3]: 0.759 µM
- EC50 [4]: 0.197 µM
- IC50 [5]: 0.246 µM

SMILES: Cc1oc(-c2ccccc2)nc1CCOc1cccc(CN(CCCc2ccccc2)CC(=O)O)c1
- Intrinsic activity [1]: 62%
- IC50 [2]: 0.773 µM
- EC50 [3]: 0.901 µM
- EC50 [4]: 0.047 µM
- IC50 [5]: 0.051 µM

SMILES: Cc1oc(-c2ccccc2)nc1CCOc1cccc(CN(CC(=O)O)Cc2ccc(OCc3ccccc3)cc2)c1
- Intrinsic activity [1]: 56%
- IC50 [2]: 0.183 µM
- EC50 [3]: 0.412 µM
- EC50 [4]: 0.324 µM
- IC50 [5]: 0.387 µM

SMILES: Cc1oc(-c2ccccc2)nc1CCOc1cccc(CN(CC(=O)O)Cc2ccc3ccccc3c2)c1
- Intrinsic activity [1]: 65%
- IC50 [2]: 0.145 µM
- EC50 [3]: 1.39 µM
- EC50 [4]: 0.313 µM
- IC50 [5]: 0.149 µM

SMILES: Cc1oc(-c2ccccc2)nc1CCOc1ccc(CN(CC(=O)O)Cc2ccc3c(c2)OCO3)cc1
- Intrinsic activity [1]: 77%
- IC50 [2]: 3.29 µM
- EC50 [3]: 0.307 µM
- EC50 [4]: 0.128 µM
- IC50 [5]: 1.8 µM

SMILES: Cc1oc(-c2ccccc2)nc1CCOc1ccc(CN(CC(=O)O)Cc2ccc(-c3ccccc3Cl)o2)cc1
- Intrinsic activity [1]: 55%
- IC50 [2]: 0.28 µM
- EC50 [3]: 0.267 µM
- EC50 [4]: 0.871 µM
- IC50 [5]: 1.8 µM

SMILES: CCC(CC)CN(CC(=O)O)Cc1ccc(OCCc2nc(-c3ccccc3)oc2C)cc1
- Intrinsic activity [1]: 8%
- Activity [14]: inactive
- EC50 [3]: 1.8 µM

SMILES: Cc1oc(-c2ccccc2)nc1CCOc1ccc(CN(CC(=O)O)Cc2ccc(OCc3ccccc3)cc2)cc1
- Intrinsic activity [1]: 106%
- IC50 [2]: 0.284 µM
- EC50 [3]: 0.221 µM
- EC50 [4]: 0.189 µM
- IC50 [5]: 1.05 µM

SMILES: Cc1oc(-c2ccccc2)nc1CCOc1cccc(CN(CC(=O)O)Cc2cccc(Oc3ccccc3)c2)c1
- Intrinsic activity [1]: 95%
- IC50 [2]: 0.11 µM
- EC50 [3]: 0.359 µM
- EC50 [4]: 0.062 µM
- IC50 [5]: 0.083 µM
